In patent US6172064A, “Formamides as therapeutic agents” (Glaxo Wellcome Inc., priority 1999, dated 2001):
Read-outs that look alike come from different tables or passages of the source.

Key:
Colo 205 Human Colon = experiment: Xenograft in vivo assay, Colo 205; details: female NU/NU mice, p.o. once a day, 14 days, 30 mg/kg and 90 mg/kg
Procedure: (§1) Female NU/NU mice with a weight of 21±2 g are weighed and used. Control and test animals are injected subcutaneously in the axillary region with a suspension of 2×10^6 viable tumor cells in 200 uL in PBS±matrigel on day 0. Tumors are allowed to grow for 10 to 14 days prior to drug administration. Doses of test drug are given on a mg/kg basis according to the mean body weight for each cage. For each drug, two doses are used, 30 mg/kg and 90 mg/kg, and are administered by p.o. route once a day over a 14 day time span. Tumor weight is calculated from two perpendicular caliper measurements of the tumor using the formula, tumor weight=length×width2.div.2 in millimeters. For each animal, tumor weight is monitored over the course of the experiment, and expressed as the percent of the tumor's weight. For each group, the mean increase in tumor weight over the course of the experiment is calculated (tumor weightday […]-tumor weightday 14=≈tumor weight) and the results expressed as percent inhibition of tumor growth with respect to the control group [1-(≈tumor weight treated group/(≈tumor weight control group)]×100. Results are presented in Table 4. The criterion for antitumor activity is 25% inhibition of tumor growth after 2 weeks of dosing (day 14).

[1] = test system: TNFα release from LPS/PMA-stimulated MonoMac 6 cells; experiment: Cell-Based TNFα Release Inhibition; details: Homo sapiens, MONO-MAC-6, LPS/PMA stimulation, 2 hours, 37° C.
Procedure: The potency of compounds of the invention as inhibitors of release of soluble tumor necrosis factor α from stimulated monocytes in vitro is determined as follows: LPS/PMA solution for assay consisting of a) 4 μL of 5 mg/mL LPS stock and b) 6 μL of 10 mg/mL PMA stock are added to 500 μL of medium (RPMI 1640 (Gibco)+10% FBS+penicillin/streptomycin+1-glutamine). This solution is then diluted 1:1000 (40 ng/mL and 120 ng/mL) for use later in the assay. Compounds (10 mM) are serially diluted 1:3 in DMSO. Compound dilutions (20 μL) are added to a sterile round bottom 96 well plate (20 μL:200 μL total volume=1:10 for final concentrations of […] for test compounds). MonoMac 6 cell suspension (130 μL, 1.5×10^6 cells/mL) is then added to each well resulting in 2×10^5 cells/well. LPS/PMA (50 μL) solution is then added to each well to begin stimulation (final concentrations of […] and 30 ng/mL respectively). The plate is incubated at 37° C. for 2 hours then spun at 1,500 rpm for 3 minutes to pellet cells. The supernatant (120 μL/well) is removed to a new round bottom 96 well plate and diluted 1:10 in PBS. Then, 20 μL of the supernatant is transferred to a Cistron TNFα ELISA plate and processed according to the manufacturer's instructions to quantitate levels of TNFα. […]

[2] = molecular target: T1, 19 kD truncated collagenase-1 (MMP-1) (Homo sapiens, UniProt P03956); experiment: Matrix Metalloprotease Inhibition, Collagenase-1; format: biochemical; details: 500 pM enzyme, 10 μM fluorogenic substrate, pH=7.6; approximate IC50 equivalent to Ki ([S]<<Km)
T1 construct: 19 kD truncated collagenase-1 (MMP-1)
T1 sequence (P03956 101-269 limits assumed): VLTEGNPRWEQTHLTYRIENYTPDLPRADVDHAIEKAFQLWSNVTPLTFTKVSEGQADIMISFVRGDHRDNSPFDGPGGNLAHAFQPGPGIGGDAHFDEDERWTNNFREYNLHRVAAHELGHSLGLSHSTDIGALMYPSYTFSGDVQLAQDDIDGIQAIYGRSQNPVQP
Procedure: (§2) The potency of compounds of the invention as inhibitors of 19 kD truncated collagenase-1 (MMP-1), 20 kD truncated collagenase-3 (MMP-13), stromelysin-1 (MMP-3), and 50 kD truncated gelatinase B (MMP-9) is determined according to the general procedure of Bickett et. al. (Anal. Biochem. 1993, 212, 58-64) using the fluorogenic substrate, DNP-Pro-Cha-Gly-Cys(Me)-His-Ala-Lys(NMA)--NH2 (DNP=2,4-dinitrophenyl,NMA=N-methylanthranilic acid). Assays are conducted in a total volume of 0.180 mL assay buffer (200 mM NaCl, 50 mM Tris, 5 mM CaCl2, 10 μM ZnSO4, 0.005% Brij 35, pH=7.6) in each well of a black 96 well microtiter plate. 19 kD collagenase-1, 20 kD collagenase-3, stromelysin-1,and 50 kD gelatinase B concentrations are adjusted to 500 pM, 30 pM, 5 nM, and 100 pM, respectively. A dose response is generated using an eleven-point, 3-fold serial dilution with initial starting test compound concentrations of 100, 10, or 1 μM. Inhibitor and enzyme reactions are incubated for 30 minutes at ambient temperature and then initiated with 10 μM fluorogenic substrate (above). The product formation is measured at Excitation343 /Emission450 nm after 45-180 minutes using a Fluostar SLT fluorescence analyzer. Percent inhibition is calculated at each inhibitor concentration and the data were plotted using standard curve fitting programs. Approximate IC50 values were determined from these curves. Assays were run at low substrate concentration ([S]<<Km) such that the calculated IC50 values are equivalent to Ki within experimental error.

[3] = test system: Lewis Lung M27 Murine Lung; experiment: Xenograft in vivo assay, Lewis Lung M27; details: female NU/NU mice, p.o. once a day, 14 days, 30 mg/kg and 90 mg/kg
Procedure: as §1

[4] = molecular target: 50 kD truncated gelatinase B (MMP-9); experiment: Matrix Metalloprotease Inhibition, Gelatinase B; format: biochemical; details: 100 pM enzyme, 10 μM fluorogenic substrate, pH=7.6; approximate IC50 equivalent to Ki ([S]<<Km)
Procedure: as §2

A549 Human Lung = experiment: Xenograft in vivo assay, A549; details: female NU/NU mice, p.o. once a day, 14 days, 30 mg/kg and 90 mg/kg
Procedure: as §1

B16B6 Murine Melanoma = experiment: Xenograft in vivo assay, B16B6; details: female NU/NU mice, p.o. once a day, 14 days, 30 mg/kg and 90 mg/kg
Procedure: as §1

[5] = test system: Mat Ly Lu Murine Prostate; experiment: Xenograft in vivo assay, Mat Ly Lu; details: female NU/NU mice, p.o. once a day, 14 days, 30 mg/kg and 90 mg/kg
Procedure: as §1

[6] = molecular target: 20 kD truncated collagenase-3 (MMP-13); experiment: Matrix Metalloprotease Inhibition, Collagenase-3; format: biochemical; details: 30 pM enzyme, 10 μM fluorogenic substrate, pH=7.6; approximate IC50 equivalent to Ki ([S]<<Km)
Procedure: as §2

[7] = molecular target: T2, TNFα converting enzyme (membrane preparation from MonoMac 6 cells) (Homo sapiens, UniProt P78536); experiment: TNFα Converting Enzyme Inhibition; format: biochemical
T2 construct: Membrane preparation from MonoMac 6 cells; endogenous in cells; host or cells: MonoMac 6 cells (membrane preparation, subfractionated extract)
T2 sequence (P78536 215-824): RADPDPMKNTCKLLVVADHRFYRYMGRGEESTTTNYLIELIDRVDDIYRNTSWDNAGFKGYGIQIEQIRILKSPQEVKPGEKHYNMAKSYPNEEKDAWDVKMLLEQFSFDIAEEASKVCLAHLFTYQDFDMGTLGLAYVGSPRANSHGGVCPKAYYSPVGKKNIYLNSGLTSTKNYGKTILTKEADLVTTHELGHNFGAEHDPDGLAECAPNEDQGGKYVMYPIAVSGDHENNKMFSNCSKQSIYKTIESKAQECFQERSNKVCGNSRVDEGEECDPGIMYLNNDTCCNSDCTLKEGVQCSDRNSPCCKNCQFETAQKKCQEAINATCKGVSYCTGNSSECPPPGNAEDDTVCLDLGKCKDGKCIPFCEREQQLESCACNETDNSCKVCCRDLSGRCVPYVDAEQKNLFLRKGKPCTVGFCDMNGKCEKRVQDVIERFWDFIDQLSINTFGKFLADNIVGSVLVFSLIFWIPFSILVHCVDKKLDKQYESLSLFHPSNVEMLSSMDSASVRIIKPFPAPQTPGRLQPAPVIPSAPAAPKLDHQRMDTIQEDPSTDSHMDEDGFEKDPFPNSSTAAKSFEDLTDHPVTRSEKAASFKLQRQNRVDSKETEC
Procedure: The potency of compounds of the invention as inhibitors of cell-free tumor necrosis factor α converting enzyme is determined as follows: Membrane preparation from MonoMac 6 cells (subfractionated extract from equivalent of 6×10^6 cells per 60 μl assay) is incubated for 1 hr with 200 nM radiolabeled substrate (Biotin-SPLAQAVRSSSRT-(^3 H)P-S--NH2, 4.1 Ci/mmol, ref #0935 from Zeneca) in 10 mM hepes buffer, 250 mM sucrose, pH=7.5. The reaction is quenched by addition of streptavidin SPA beads (Amersham RPNQ0006), with excess binding capacity relative to substrate, suspended in 250 mM EDTA, pH=8.0. Binding is complete within 15 minutes and plates are counted in a Wallac 1450 Microbeta liquid scintillation counter. Percent inhibition is calculated at each inhibitor concentration and the data were plotted using standard curve fitting programs. Approximate IC50 values were determined from these curves. Assays were run at low substrate concentration ([S]<<Km) such that the calculated IC50 values are equivalent to Ki within experimental error.

SW 620 Human Colon = experiment: Xenograft in vivo assay, SW 620; details: female NU/NU mice, p.o. once a day, 14 days, 30 mg/kg and 90 mg/kg
Procedure: as §1

stromelysin-1 (MMP-3) = stromelysin-1 (MMP-3) (Homo sapiens, UniProt P08254); experiment: Matrix Metalloprotease Inhibition, Stromelysin-1; format: biochemical; details: 5 nM enzyme, 10 μM fluorogenic substrate, pH=7.6; approximate IC50 equivalent to Ki ([S]<<Km)
stromelysin-1 (MMP-3), sequence (P08254 100-477): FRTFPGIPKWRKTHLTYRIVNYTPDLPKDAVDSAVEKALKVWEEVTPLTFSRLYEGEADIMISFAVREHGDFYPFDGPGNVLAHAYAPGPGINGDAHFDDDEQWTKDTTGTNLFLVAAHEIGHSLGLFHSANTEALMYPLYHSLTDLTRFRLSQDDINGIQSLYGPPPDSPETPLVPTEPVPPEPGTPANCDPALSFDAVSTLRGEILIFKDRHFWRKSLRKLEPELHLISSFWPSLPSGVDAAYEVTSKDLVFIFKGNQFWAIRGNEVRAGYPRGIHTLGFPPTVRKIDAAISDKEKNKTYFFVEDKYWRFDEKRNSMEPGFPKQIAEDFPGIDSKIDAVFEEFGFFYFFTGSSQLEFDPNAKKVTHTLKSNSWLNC
Procedure: as §2

[8] = MonoMac 6 membrane preparation, 200 nM radiolabeled substrate, pH=7.5, 1 hr, approximate IC50 equivalent to Ki ([S]<<Km), read-out: TNFα Converting Enzyme Ki

Structure (SMILES) | percent inhibition of tumor growth (Colo 205 Human Colon) | IC50 [1] | Ki [2] | percent inhibition of tumor growth [3] | Ki [4] | percent inhibition of tumor growth (A549 Human Lung) | percent inhibition of tumor growth (B16B6 Murine Melanoma) | percent inhibition of tumor growth [5] | Ki [6] | Ki [7] | percent inhibition of tumor growth (SW 620 Human Colon) | Ki (stromelysin-1 (MMP-3)) | Ki [7, 8]
CNC(=O)[C@@H](NC(=O)[C@H](CCCc1ccccc1)[C@H](C)N(O)C=O)C(C)(C)C [Example 1] | ++ (51-75% Inhibition) | > 500 nM | 50 to 500 nM | + (26-50% Inhibition) | 0.5 to 5 nM | ++++ (>100% Inhibition (Tumor Regression)) | + (26-50% Inhibition) | ++ (51-75% Inhibition) | 0.5 to 5 nM | 50 to 500 nM | ++ (51-75% Inhibition) | 50 to 500 nM | –
CNC(=O)[C@@H](NC(=O)[C@H](CCCc1ccc(Cl)cc1)[C@H](C)N(O)C=O)C(C)(C)C [Example 2] | – | – | 5 to 50 nM | – | 0.001 to 0.5 nM | – | – | – | 0.001 to 0.5 nM | – | – | 5 to 50 nM | > 500 nM
CNC(=O)[C@@H](NC(=O)[C@H](CCCc1cccs1)[C@H](C)N(O)C=O)C(C)(C)C [Example 3] | – | – | 5 to 50 nM | – | 0.5 to 5 nM | – | – | – | 0.001 to 0.5 nM | – | – | 50 to 500 nM | 50 to 500 nM
CC(C)[C@@H]([C@@H](CCCc1ccc(Cl)cc1)C(=O)N[C@H](C(=O)NCc1cccnc1)C(C)(C)C)N(O)C=O [Example 9] | – | – | 50 to 500 nM | – | 0.5 to 5 nM | – | – | – | 0.001 to 0.5 nM | – | – | 5 to 50 nM | 50 to 500 nM
C[C@@H]([C@@H](CCCc1ccc(Cl)cc1)C(=O)N[C@H](C(=O)NCc1ccccn1)C(C)(C)C)N(O)C=O [Example 20, (2R,3S)-3-(Formylhydroxyamino)-2-(3-(4-chlorophenyl)-1-propyl)-butanoic Acid [(1S)-2,2-Dimethyl-(1-(2-pyridylmethyl)carbamoyl)-1-propyl]amide] | – | – | 50 to 500 nM | – | 0.5 to 5 nM | – | – | – | 0.001 to 0.5 nM | – | – | 50 to 500 nM | > 500 nM
C[C@@H]([C@@H](CCCc1ccc(Cl)cc1)C(=O)N[C@H](C(=O)NCCCN1CCOCC1)C(C)(C)C)N(O)C=O [Example 24, (2R,3S)-3-(Formylhydroxyamino)-2-(3-(4-chlorophenyl)-1-propyl)-butanoic Acid[(1S)-2,2-Dimethyl-(1-(3-(4-morpholino)-1-propyl)carbamoyl)-1-propyl]amide] | – | – | 50 to 500 nM | – | 0.5 to 5 nM | – | – | – | 0.001 to 0.5 nM | – | – | 5 to 50 nM | 50 to 500 nM
CNC(=O)[C@@H](NC(=O)[C@H](CCCc1ccc(C)cc1)[C@H](C)N(O)C=O)C(C)(C)C [Example 52, (2R,3S)-3-(Formylhydroxyamino)-2-(3-(4-methylphenyl)-1-propyl)butanoic Acid [(1S)-2,2-Dimethyl-(1-methylcarbamoyl)-1-propyl]amide] | – | – | 50 to 500 nM | – | 0.5 to 5 nM | – | – | – | 0.5 to 5 nM | – | – | 5 to 50 nM | 50 to 500 nM
CNC(=O)[C@@H](NC(=O)[C@H](CCCCCc1ccccc1)[C@H](C)N(O)C=O)C(C)(C)C [Example 61, (2R,3S)-3-(Formylhydroxyamino)-2-(5-phenyl-1-pentyl)butanoic Acid [(1S)-2,2-Dimethyl-(1-methylcarbamoyl)-1-propyl]amide] | – | – | 50 to 500 nM | – | 0.5 to 5 nM | – | – | – | 0.5 to 5 nM | – | – | 5 to 50 nM | > 500 nM
